Source: patent US12287344B2, “Fret-based method to measure seeding activity of misfolded protein species in biological samples” (MAX-DELBRÜCK-CENTRUM FÜR MOLEKULARE MEDIZIN IN DER …, priority 2018, dated 2025)

What was measured:
Ex1Q48-CyPet/-YPet = assay: FRASE assay: effect of added preformed fibrils/seeds on Ex1Q48-CyPet/-YPet polymerization; assay type: biochemical, human; conditions: non-polyQ fibrillar aggregates produced in vitro; sensor 1:1 mixture, total conc. 1.2 μM
Protocol: (B) Effects of small, preformed Ex1Q48 seeds (1250 kDa) on Ex1Q48-CyPet and -YPet (1:1 mixture, total conc. 1.2 μM) co-aggregation. Data are mean±SEM (n=5).
(D) Effects of non-polyQ fibrils on Ex1Q48-CyPet and -YPet (1:1 mixture, total conc. 1.2 μM) co-aggregation. Data are mean±SD of triplicates.
Spontaneous Ex1Q48 aggregation was initiated by addition of 14 U PreScission protease (GE Healthcare) per nmol purified GST-Ex1Q48 fusion protein (2 μM). The aggregation reaction was performed in 50 mM Tris-HCl pH 7.4, 150 mM NaCl, 1 mM EDTA and 1 mM DTT at 25° C. and constant agitation (450 rpm) for 24 h. […] K2Q48P6 protein for seeding experiments was prepared from GST-K2Q48P6 fusion protein using the same protocol. ΔN17Q48+6PRD protein for seeding experiments was prepared from GST-ΔN17Q48+6PRD fusion protein using the same protocol. ΔN17Q40+6PRD protein for seeding experiments was prepared from GST-ΔN17Q40+6PRD fusion protein using the same protocol. Synthetic human IAPP was aggregated as described previously (Gao et al., 2015). Lyophilized α-Syn was dissolved in PBS at 500 μM and centrifuged (4° C., 265.000×g) after a 5 min sonication step to remove aggregated material. The supernatant was incubated for 7 d at 37° C. under constant shaking in the presence of a single glass bead. Tau40 was aggregated for 6 d at 37° C. under constant shaking in 100 mM sodium acetate, pH 7.4, and 1 mM DTT in the presence of heparin. Synthetic human Δβ1-42 was dissolved in 100 mM NaOH and diluted to 200 μM in low salt buffer (10 mM K3PO4, pH 7.4, 10 mM NaCl). Aggregation was performed for 6 h at 37° C. under constant agitation.
(§1) Purified GST-Ex1Q48-CyPet and GST-Ex1Q48-YPet were diluted in aggregation buffer at an equimolar ratio to a final concentration of 1.2 μM (0.6 μM each) with 14 U PSP per nmol sensor proteins if not stated otherwise. […] For quantification of seeding-competent HTT species in tissue samples, the sensor-protein mixture was supplemented with up to 10% (v/v) tissue homogenate. Fluorescence signals were measured every 20 min following a 5 s pulse of vertical shaking with a Tecan M200 fluorescence plate reader at 25° C. for up to 48 h. CyPet donor fluorescence was measured at excitation (Ex): 435 nm/emission (Em): 475 nm; YPet acceptor fluorescence at Ex: 500 nm/Em: 530 nm; the FRET channel (DA) was recorded at Ex: 435 nm/Em: 530 nm. Raw signals were processed by subtracting the background fluorescence of unlabeled Ex1Q48 in all channels. […] In brief, the FRET efficiency E (in %) was calculated as follows: E=(DA-cDxDD-cAxAA)/AA with DD=donor channel signal and AA=acceptor channel signal.
Seeding effects (Δt50 [h]) were quantified by subtracting the t50 values (time at half-maximal FRET efficiency) of the respective sample from the negative control. […]

sensor proteins = assay: Sensor protein aggregation in the presence of compound but in the absence of HTTex1Q48 seeds; assay type: biochemical, human; conditions: compound present, no HTTex1Q48 seeds; residual concentration
Protocol: Purified GST-Ex1Q48-CyPet and GST-Ex1Q48-YPet were diluted in aggregation buffer at an equimolar ratio to a final concentration of 1.2 μM (0.6 μM each) with 14 U PSP per nmol sensor proteins if not stated otherwise. The solution was then mixed with preformed aggregates of Ex1Q48 (seeds) at varying concentrations with or without prior sonication and transferred to a black 384-well plate (with a final reaction volume of 30 μl per well and a sensor protein concentration of 1.2 μM). For quantification of seeding-competent HTT species in tissue samples, the sensor-protein mixture was supplemented with up to 10% (v/v) tissue homogenate. Fluorescence signals were measured every 20 min following a 5 s pulse of vertical shaking with a Tecan M200 fluorescence plate reader at 25° C. for up to 48 h. CyPet donor fluorescence was measured at excitation (Ex): 435 nm/emission (Em): 475 nm; YPet acceptor fluorescence at Ex: 500 nm/Em: 530 nm; the FRET channel (DA) was recorded at Ex: 435 nm/Em: 530 nm. Raw signals were processed by subtracting the background fluorescence of unlabeled Ex1Q48 in all channels. […] In brief, the FRET efficiency E (in %) was calculated as follows: E=(DA-cDxDD-cAxAA)/AA with DD=donor channel signal and AA=acceptor channel signal. […]

HTTex1Q48 seeds = biological target: T1, HTTex1Q48 seeds (Homo sapiens, UniProt P42858, INS38QQQQQQQQQQQQQQQQQQQQQQQQQQQ/P65L/V80A); assay: FRASE assay of HTTex1Q48 seeds pre-incubated with compound; assay type: biochemical; conditions: preformed, sonicated HTTex1Q48 aggregates incubated with compound in 200-fold molar excess at 25° C. for 20 hours; compared to seeds incubated with DMSO
T1 construct: GST (N, cleaved yes); made in house; host or cells: E. coli BL21-CodonPlus-RP
T1 sequence (P42858 with tags, fused parts or gaps with the stated changes): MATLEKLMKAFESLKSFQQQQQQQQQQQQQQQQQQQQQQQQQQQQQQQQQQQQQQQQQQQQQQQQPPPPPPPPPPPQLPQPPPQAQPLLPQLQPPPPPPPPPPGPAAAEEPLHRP
Protocol: Httex1Q48 seeds were pre-incubated with 04 in 200-fold molar excess at 25° C. for 20 h and subsequently analyzed for their seeding activity using FRASE assays. (A) Aggregation profiles of sensor proteins in the presence or absence of O4 treated seeds and respective controls. Data are mean±SD of technical triplicates.
as §1, with “signal. […]” for “signal.”

HTTex1Q48 = HTTex1Q48 (Homo sapiens, UniProt P42858, INS38QQQQQQQQQQQQQQQQQQQQQQQQQQQ/P65L/V80A); conditions: previously shown (Wagner et al., 2018); cited from earlier work
Chain of HTTex1Q48 (P42858 with tags, fused parts or gaps with the stated changes): as the sequence (P42858 with tags, fused parts or gaps with the stated changes) above

| Molecule | influence on Ex1Q48-CyPet/-YPet polymerization (Ex1Q48-CyPet/-YPet) | effect on sensor protein aggregation (sensor proteins) | HTTex1Q48 seeding activity (HSA, Δt50) after pre-incubation of seeds (HTTex1Q48 seeds) | interference with the aggregation of HTTex1Q48 (HTTex1Q48) |
| --- | --- | --- | --- | --- |
| α-synuclein | did not significantly influence | – | – | – |
| tau: recombinant Tau40 protein aggregated in the presence of heparin | did not significantly influence | – | – | – |
| IAPP: synthetic human islet amyloid polypeptide aggregated in vitro (KCNTATCATQRLANFLVHSSNNFGAILSSTNVGSNTY) | did not significantly influence | – | – | – |
| O=c1cc2oc3cc(O)c(-c4ccc(O)cc4O)cc3nc-2cc1-c1ccc(O)cc1O [O4] | – | no significant effect | strongly reduces | interfere with the aggregation |
| amyloid-β: synthetic human Aβ1-42 aggregated in vitro | did not significantly influence | – | – | – |
